Source: patent US20170336420A1, “METHODS AND KITS FOR TREATING CARDIOVASCULAR DISEASES” (RAPPAPORT FAMILY INSTITUTE FOR RESEARCH IN THE MEDICAL …, priority 2014, published 2017)
Read-outs that look alike come from different tables or passages of the source.

Assays:
[1] = for HDL Y1 (mean) / LDL Y1 (mean) / TG Y1 (mean): year 1
Source text: (§1) AIM-HIGH (clinicaltrials.gov NCT00120289) was a randomized double blind clinical trial which set out to test the HDL hypothesis—that raising HDL would reduce CVD events. This hypothesis was based on epidemiological data showing that individuals with higher HDL had lower CVD. AIM-HIGH set out to raise HDL via the drug niacin. The 3414 participants in AIM HIGH were randomly assigned to receive extended release niacin 1500-2000 g/day vs placebo. All participants received simvastatin. The primary endpoint was the first event of the composite of death from coronary heart disease, nonfatal myocardial infarction, ischemic stroke, hospitalization for an acute coronary syndrome, or symptom driven coronary or cerebral revascularization.
70 Hp 1-1 and 70 Hp 2-2 DM AIM HIGH participants, with half in the niacin and half in the placebo group, were randomly selected by the AIM HIGH coordinating center for analysis for HDL metrics at baseline and one year into the study.

ApoB depleted serum = test system: ApoB depleted serum
Description: (§2) This AIM HIGH substudy was approved by the AIM HIGH steering committee and was designed to investigate whether the Hp phenotype influenced HDL functional metrics in DM participants in AIM HIGH. All 1140 DM participants in AIM HIGH were subjected to Hp phenotyping. Functional HDL metrics (RCT and antioxidant function) was evaluated at baseline and at one year of treatment in 70 Hp 1-1 and 70 Hp 2-2 DM individuals with half in the niacin and half in the placebo group. In 20 Hp 1-1 and 20 Hp 2-2 DM individuals the amount of Hb associated with the HDL at baseline was measured. Individuals performing all functional assays were blinded to treatment assignment of all samples used for this study.
(§3) The amount of total oxidation and HDL anti-oxidant function were assessed in apolipoprotein (apo)-B depleted serum using the fluorescent and oxidation-sensitive agent dihydrorhodamine 123 (DHR). Apo-B depleted serum was prepared using polyethylene glycol (PEG) as previously described in Asztalos BF, de la Llera-Moya M, Dallal G E, Horvath K V, Schaefer E J, Rothblat G H. Differential effects of HDL subpopulations on cellular ABCA1- and SR-BI-mediated cholesterol efflux. J Lipid Res. 2005; 46:2246-2253
(§4) Briefly-serum samples were treated with PEG solution to precipitate apoB-containing lipoproteins by adding 40 parts PEG solution (20% PEG in 200 mM glycine buffer, pH 7.4) to 100 parts serum. After a 20 min incubation, the precipitate was removed by high-speed centrifugation (10,000 rpm, 30 min, 4° C.) to obtain the PEG supernatant containing the HDL lipoprotein fraction.
(§5) Duplicates of 20 μl of apo-B-depleted serum were transferred to clear-bottom 96-well plates, and 180 μl of iron-free Hepes-buffered saline (HBS) containing 50 μM DHR was then added. Immediately after the addition of DHR, the kinetics of fluorescence increase was followed in a BMG Galaxy Fluostar microplate reader at 37° C. with a 485/538 nm excitation/emission filter pair with repeated readings every 2 minutes up to 40 minutes. Total oxidation was calculated as the rate of DHR oxidation (fluorescent units (FU)/min) for each duplicate after subtracting the rate of DHR oxidation observed using the same conditions but in the absence of serum.

AIM HIGH participants [2] = details: cited from earlier work
HDL [3] = test system: HDL
Description: as §2, §3, §4, §5
HDL anti-oxidation function represents a fraction of the total oxidation prevented by HDL (in which case HDL is behaving as an antioxidant) or provoked by HDL (in which case HDL is behaving as a pro-oxidant) within each sample. To calculate HDL anti-oxidant function, HDL was depleted by immunoprecipitation from apo-B-depleted serum using anti-human apoA1 antibody and protein A/G Sepharose, before duplicates of corrected volumes of remnant apo-B- and Apo-A-depleted serum were transferred to 96-well plates and the rate of DHR oxidation measured in the identical manner and in parallel with the measurement of total oxidation as described above.

[4] = all participants; increased from mean of 35 mg/dl; cited from earlier work
[5] = test system: Murine macrophage J774 cells; details: Hp 1-1 group, baseline vs 1 year on niacin
Description: Serum induced reverse cholesterol transport function and HDL antioxidant function were measured in 70 Hp 1-1 and 70 Hp 2-2 participants from the AIM HIGH study at baseline and at one year after randomization to placebo or niacin.
as §2, with “Individuals performing all functional assays were blinded to treatment assignment of all samples used for this study.” left out
Measurement of HDL efflux capacity was performed as previously described. […] Liquid scintillation counting was then determined in 500 μl of the medium collected from each well as well as in the cells after washing the cells twice with PBS and lysing them in 0.1 N NaOH. Cholesterol efflux capacity was determined as the percentage efflux of total counts per minute in the medium divided by the total counts per minute in the medium and in the cells and after subtraction of the nonspecific efflux obtained in cells incubated in the absence of serum.

AIM HIGH participants [6] = assay: AIM-HIGH randomized double blind clinical trial, primary composite endpoint of CVD events, also segregated by Hp type; format: in vivo, human; details: DM participants
Source text: as §1, with “The 3414 participants in AIM HIGH were randomly assigned to receive extended release niacin 1500-2000 g/day vs placebo.” left out
Hp typing was performed by the inventors using polyacrylamide gel electrophoresis. Data on Hp typing was returned to the AIM HIGH coordinating center which provided the event rates in these participants segregated by Hp type and treatment (monotherapy with statins only or combination therapy with statins plus niacin).

[7] = Hp 2-2 genotype individuals with diabetes mellitus; cited from earlier work
HDL [8] = details: Hp 2-2 DM individuals; three independent studies; cited from earlier work
[9] = a little more than a year of treatment; cited from earlier work
[10] = patients who had a recent acute coronary syndrome; cited from earlier work
[11] = Hp 1-1 niacin group, at one year vs baseline
[12] = Hp 2-2 niacin group, at one year vs baseline

O=C(O)c1cccnc1 [niacin, pyridine-3-carboxylic acid]
HDL Y1 (mean) ([1]; Hp 11 niacin group, HDL base 33.91): 40.94 | LDL Y1 (mean) ([1]; Hp 11 niacin group, LDL base 81.18): 67.71 | TG Y1 (mean) ([1]; Hp 11 niacin group, TG base 193.12): 174.97 | HDL Y1 (mean) ([1]; Hp 22 niacin group, HDL base 33.74): 43.29 | LDL Y1 (mean) ([1]; Hp 22 niacin group, LDL base 65.91): 64.15 | TG Y1 (mean) ([1]; Hp 22 niacin group, TG base 211.88): 164.50 | HDL mass (in words) ([1]; both Hp 1-1 and Hp 2-2 DM individuals): significant increase in HDL mass | change in total oxidation (in words) (ApoB depleted serum; Hp 1-1 individuals): significant decrease | total oxidation decreased by (ApoB depleted serum; [11]): 19.1±3.4 oxidation units | change in total oxidation (in words) (ApoB depleted serum; Hp 2-2 individuals): significant increase in total oxidation | total oxidation increased by (ApoB depleted serum; [12]): 13.4±5.0 oxidation units | primary endpoint occurred in patients (AIM HIGH participants [2]; all 3414 participants, extended release niacin 1500-2000 g/day, all received simvastatin, mean follow up 3 years): 282 patients | primary endpoint, % of group (AIM HIGH participants [2]; all participants, niacin group, all received simvastatin, mean follow up 3 years): 16.4% | HR for primary endpoint (AIM HIGH participants [2]; niacin group vs placebo group, all participants): 1.02 | change in HDL antioxidant function (in words) (HDL [3]; Hp 1-1 individuals): improved | change in HDL antioxidant function (in words) (HDL [3]; Hp 1-1 individuals, listed as Niacin): increase in HDL antioxidant function | HDL antioxidant function increased by (HDL [3]; [11]): 10.8±2.3 units | change in HDL antioxidant function (in words) (HDL [3]; Hp 2-2 individuals): worsened | change in HDL antioxidant function (in words) (HDL [3]; Hp 2-2 individuals, listed as Niacin): significant decline in the antioxidant function | HDL antioxidant function decreased by (HDL [3]; [12]): 8.3±2.9 units | HDL, mean on treatment [4]: 42 mg/dL | increase in median efflux [5]: 14%

CCC(C)(C)C(=O)O[C@H]1C[C@@H](C)C=C2C=C[C@H](C)[C@H](CC[C@@H]3C[C@@H](O)CC(=O)O3)[C@H]21 [Simvastatin]
% Primary Event, % of N in this category (AIM HIGH participants [6]; HP1-1): (24.0%) | Event Rate (AIM HIGH participants [6]; HP1-1): 0.0803 | N Primary Event (AIM HIGH participants [6]; HP1-1): 23 | % Primary Event, % of N in this category (AIM HIGH participants [6]; HP2-1): (17.9%) | Event Rate (AIM HIGH participants [6]; HP2-1): 0.0582 | N Primary Event (AIM HIGH participants [6]; HP2-1): 46 | % Primary Event, % of N in this category (AIM HIGH participants [6]; HP2-2): (16.3%) | Event Rate (AIM HIGH participants [6]; HP2-2): 0.0532 | N Primary Event (AIM HIGH participants [6]; HP2-2): 33

vitamin E
risk for cardiovascular diseases (in words) [7]: reduces the risk for cardiovascular diseases | RCT function (in words) (HDL [8]): restore and significantly improve RCT function

CC(C)c1c(C(=O)Nc2ccccc2)c(-c2ccccc2)c(-c2ccc(F)cc2)n1CC[C@@H](O)C[C@@H](O)CC(=O)O [Atorvastatin®, Atorvastatin]
deaths [9]: 51

CCC(CC)CC1(C(=O)Nc2ccccc2SC(=O)C(C)C)CCCCC1 [Dalcetrapib®, S-[2-({[1-(2-ethylbutyl)cyclohexyl]carbonyl}amino)phenyl] 2-methylpropanethioate]
HDL cholesterol levels (in words) [10]: increase HDL cholesterol levels | risk of recurrent cardiovascular events (in words) [10]: did not reduce the risk of recurrent cardiovascular events
